Non-standard residues stand in square brackets, D forms with d. No end group written: not given here. Ahx = NCCCCCC(=O)O; βAla = NCCC(=O)O

Consider one substance from patent publication US9302014B2, “Cell-penetrating peptides having a central hydrophobic domain” (Medical Research Council, priority 2011, dated 2016).

For assay [1], the system named is dystrophin. The assay is described as follows: Western blot quantification of dystrophin protein in mdx mouse muscles. Type of assay: in vivo. Conditions: lead PPMO comparison; 8 week old mdx mice, 12.5 mg/kg IV, 2 weeks. How it is done: The RTPCR representative images (FIG. 34d) illustrate high exon skipping efficiency in all tissues analysed. This is better shown by Real Time PCR (qRT-PCR) results for the quadriceps, diaphragm and heart (FIG. 34c). The delta 23 transcript is normalised against ‘total dystrophin’ for each muscle group (n=3). […] Western blots (FIG. 34e) were performed on the tissues of each mouse and were quantified against a 50% and 10% C57BL10 control.
Four and a half month old to 5½ month old mdx mice were used in these experiments (n=3). The experiments were carried out in the Biomedical Sciences Unit, University of Oxford according to procedures authorised by the UK Home Office. […]
Control and treated muscle samples were homogenised in lysis buffer comprising 75 mM Tris-HCl (pH 6.5) and 10% Sodium Dodecyl Sulphate complemented with 5% 2-mercaptoethanol. […] Protein levels were measured by Bradford assay (Sigma) and quantified using BSA standards. […] Primary antibody was detected by binding of horseradish peroxidise-conjugated anti-mouse IgG with lumigen. Western blots were imaged (LiCOR Biosciences) and analysed using the Odyssey imaging system.
The dystrophin protein level in PPMO treated mdx muscles was quantified by western blot analysis. The density of the dystrophin band was quantified using Licor software and vinculin was used as the loading control. […]

Assay [2] has as its system dystrophin. Description: In vivo exon skipping and dystrophin production in mdx mice (combined RNA and protein read-outs). Conditions: lead PPMO comparison; TA, quadriceps, diaphragm and heart; 8 week old mdx mice, 12.5 mg/kg IV, 2 weeks. An excerpt:
Given the potency of Pip5e-PMO in heart tissue, the aim of altering the sequence of the hydrophobic core (whilst maintaining the 5-aa length) was to identify peptides that might be more efficient at lower doses. These modifications included inversion of the hydrophobic region (Pip6a), substitution of tyrosine by isoleucine (Pip6b), substitution of glutamine in the Pip6a sequence by displacement of the arginine immediately flanking the core in the first arginine-rich flanking region (Pip6e), and a scrambled hydrophobic core sequence (Pip6f). All Pip6 peptide-PMO conjugates were administered to mdx mice as single 12.5 mg/kg intravenous injections via the tail vein and tissues were harvested 2 weeks later and assessed for activity at both RNA and protein levels. […]
Immunohistochemical staining (data not shown) was used to visualise the production of dystrophin protein (and its correct re-location at the sarcolemma) and RT-PCR was used to detect exon-skipped products in treated mdx muscle groups. qPCR allows for the quantification of the spliced product and Western blots were used to quantify the amount of dystrophin protein produced in muscles from treated mdx mice as compared with C57BL10 and untreated mdx controls. […]

In the case of “Pip9d2: Pip9 series peptide (SEQ ID Nos 320-328) conjugated to PMODMD (R[Ahx]RR[βAla]RFQILY[βAla]R[Ahx]R[βAla]; also: conjugated to PMO (PMODMD))”, the “dystrophin protein level by western blot (vinculin loading control)” value in assay [1] is “negligible dystrophin production”. Besides, in assay [2], the “levels of exon-skipped dystrophin RNA and protein” value was “negligible dystrophin production”.
